Patent US4582823A, “Method for treating schizophrenia and medicaments therefor” (Warner-Lambert Company, priority 1984, dated 1986)
Entries after “also recorded” stand apart in the source; their conditions may differ. Where two headings read alike, the source gives them in different places.

Legend:
[1] = tested on: haloperidol-induced dystonia in Cebus monkeys; assay: Effect of N^6-(2,2-diphenylethyl)adenosine and haloperidol given together orally (capsule or gavage) on dystonia in Cebus monkeys; settings: for # showing dystonia/Total: haloperidol 0.5 PO capsule, time 0
Protocol: (§1) On test days, animals were given N^6 -(2,2-diphenylethyl)adenosine before or after haloperidol. Drugs were prepared as suspensions in 0.2% Methocel for oral and IP injection. Solutions for IM injections of haloperidol were made using lactic acid and of the adenosine using ethanol.

[2] = tested on: haloperidol-induced dystonia in Cebus monkeys; settings: for # showing dystonia/Total: time 0
Protocol: as §1

Sprague-Dawley male rats = assay: rat locomotor activity (darkened actophotometer, 30 minutes); format: in vivo; settings: for Locomotor Activity, % Of Control ± SEM: 1 hr before test
Protocol: Sprague-Dawley male rats were used.
Each animal was then placed in a darkened actophotometer and locomotor activity was recorded automatically by a microcomputer for 30 minutes. Locomotor activity data were compared to the mean response of vehicle treated control and were expressed as percentage of activity relative to control.

[3] = tested on: haloperidol-induced dystonia in Cebus monkeys; assay: Attempted reversal of haloperidol-induced dystonia in sensitized Cebus monkeys; format: in vivo, Cebus monkeys (Cebus appella); settings: for # Reversed/Total: adenosine 8 mpk IM
Protocol: as §1

**Q.** How did the monkeys with dystonia ([1]; haloperidol alone 0.5 mg/kg in a capsule) turn out when O=C(CCCN1CCC(O)(c2ccc(Cl)cc2)CC1)c1ccc(F)cc1 [Haloperidol, reference compound] was run?
**A.** Its monkeys with dystonia is 5 of 5.

**Q.** And the “# showing dystonia/Total” value ([1]; no adenosine)?
**A.** Its value is 5/5.

**Q.** And the “dystonic reactions in sensitized monkeys” value ([2]; Cebus monkey, haloperidol 0.2 mpk PO)?
**A.** Its value is “dystonic reactions were consistently manifest”.

**Q.** And the “# showing dystonia/Total” value ([2]; adenosine 0 mpk IP, haloperidol 0.05 mpk IM, +30 Min.)?
**A.** The value was 5/5.

**Q.** What about the “onset of action (dystonia)” value ([2]; monkey, in vivo) of the same molecule?
**A.** The value was 3 to 7 min.

**Q.** And the “onset of action (dystonia)” value ([2]; monkey, in vivo, po)?
**A.** Its value is 60 to 180 min.

**Q.** What about the “Locomotor Activity, % Of Control ± SEM” value (Sprague-Dawley male rats; oral, Vehicle 5 ml/kg + HPD 0.1 mg/kg, n=8 (run with 3 mg/kg adenosine)) of the same molecule?
**A.** Its value is 80.4 ± 10.2 % Of Control.

**Q.** And the “Locomotor Activity, % Of Control ± SEM” value (Sprague-Dawley male rats; oral, Vehicle 5 ml/kg + HPD 0.1 mg/kg, n=9 (run with 1 mg/kg adenosine))?
**A.** The value was 108.6 ± 8.6 % Of Control.

**Q.** And the “Locomotor Activity, % Of Control ± SEM” value (Sprague-Dawley male rats; oral, Vehicle 5 ml/kg + HPD 0.3 mg/kg, n=9 (run with 1 mg/kg adenosine))?
**A.** Its value is 46.0 ± 7.2 % Of Control.

**Q.** And the “Locomotor Activity, % Of Control ± SEM” value (Sprague-Dawley male rats; oral, Vehicle 5 ml/kg + HPD 0.3 mg/kg, n=17 (run with 3 mg/kg adenosine))?
**A.** The value was 44.0 ± 4.5 % Of Control.

**Q.** What about the “Locomotor Activity, % Of Control ± SEM” value (Sprague-Dawley male rats; oral, Vehicle 5 ml/kg + HPD 1.0 mg/kg, n=9 (run with 1 mg/kg adenosine)) of the same molecule?
**A.** Its value is 21.8 ± 2.9 % Of Control.

**Q.** What about the “Locomotor Activity, % Of Control ± SEM” value (Sprague-Dawley male rats; oral, Vehicle 5 ml/kg + HPD 1.0 mg/kg, n=17 (run with 3 mg/kg adenosine)) of the same molecule?
**A.** The value was 18.0 ± 2.5 % Of Control.

**Q.** What about the “Locomotor Activity, % Of Control ± SEM” value (Sprague-Dawley male rats; oral, Vehicle 5 ml/kg + HPD 3.0 mg/kg, n=9 (run with 3 mg/kg adenosine)) of the same molecule?
**A.** The value was 8.2 ± 2.1 % Of Control.

**Q.** OC[C@H]1O[C@@H](n2cnc3c(NCC(c4ccccc4)c4ccccc4)ncnc32)[C@H](O)[C@@H]1O [N^6-(2,2-Diphenylethyl)adenosine] was tested. Which “effect on development or severity of dystonias (in words)” value ([1]; Cebus monkey, adenosine together with haloperidol orally by capsule) did it give?
**A.** The value was “did not appreciably affect the development or severity of dystonias”.

**Q.** And the “animals with marked reduction in the severity of dystonia” value ([1]; adenosine 5 mg/kg PO + haloperidol 0.5 mg/kg in a solution by gavage)?
**A.** Its value is 4 of 5.

**Q.** What about the “# showing dystonia/Total” value ([1]; adenosine 5 mpk PO capsule) of the same molecule?
**A.** Its value is 5/6.

**Q.** What about the “prevention of dystonia, same capsule (conclusion)” value ([1]; adenosine and haloperidol in the same capsule) of the same molecule?
**A.** The value was “did not prevent dystonia induced by haloperidol”.

**Q.** What about the monkeys with dystonia ([1]; haloperidol 0.5 mg/kg with adenosine 5 mg/kg in a capsule) of the same molecule?
**A.** The monkeys with dystonia was 5 of 6.

**Q.** What about the “severity of dystonia, gavage (conclusion)” value ([1]; solution of adenosine and haloperidol by gavage) of the same molecule?
**A.** The value was “reduced severity of dystonia”.

**Q.** And the “effect on severity of established dystonia” value ([3]; Cebus monkey, adenosine 8 mpk IM after dystonias induced by haloperidol (IM or PO))?
**A.** Its value is “no effect on the severity of dystonia”.

**Q.** What about the “reversal of ongoing dystonia (conclusion)” value ([3]; Cebus monkey, adenosine IM) of the same molecule?
**A.** Its value is “did not reverse ongoing dystonia induced by haloperidol”.

**Q.** What about the “# Reversed/Total” value ([3]; +30 Min. after haloperidol 0.05 IM) of the same molecule?
**A.** The value was 0/6.

**Q.** And the “# Reversed/Total” value ([3]; +90 Min. after haloperidol 0.5 PO)?
**A.** Its value is 0/6.

**Q.** And the “animals in which haloperidol-induced dystonia was not blocked” value ([2]; Cebus monkey, adenosine 8 mg/kg IM, haloperidol 0.5 mg/kg PO)?
**A.** The value was 3/6.

**Q.** And the “blocking of haloperidol-induced dystonia by IM route (in words)” value ([2]; Cebus monkey, adenosine IM versus other routes)?
**A.** Its value is “less effective in blocking haloperidol-induced dystonia than when administered by other routes”.

**Q.** What about the “intensity of dystonia in animals displaying dystonia after combined treatment” value ([2]; Cebus monkey, adenosine IP + haloperidol, relative to absence of the adenosine) of the same molecule?
**A.** The value was “less intense than those seen in the absence of the adenosine”.

**Q.** And the “prevention of development of dystonia (in words)” value ([2]; Cebus monkey, adenosine IP together with haloperidol PO)?
**A.** The value was “prevented the development of dystonia in a dose dependent fashion”.

**Q.** And the “# showing dystonia/Total” value ([2]; adenosine 0.5 mpk IP, haloperidol 0.5 mpk PO)?
**A.** Its value is 5/5.

**Q.** And the “# showing dystonia/Total” value ([2]; adenosine 1.5 mpk IP, haloperidol 0.5 mpk PO)?
**A.** Its value is 4/6.

**Q.** What about the “# showing dystonia/Total” value ([2]; adenosine 5 mpk IP, haloperidol 0.05 mpk IM, +30 Min.) of the same molecule?
**A.** Its value is 0/6.

**Q.** And the “# showing dystonia/Total” value ([2]; adenosine 5 mpk IP, haloperidol 0.5 mpk PO)?
**A.** The value was 1/6.

**Q.** And the “# showing dystonia/Total” value ([2]; adenosine 20 mpk IP, haloperidol 0.05 mpk IM, +30 Min.)?
**A.** Its value is 0/6.

**Q.** And the “# showing dystonia/Total” value ([2]; adenosine 20 mpk IP, haloperidol 0.5 mpk PO)?
**A.** Its value is 0/6.

**Q.** What about the “depression induced by the adenosine” value ([2]; monkey, in vivo) of the same molecule?
**A.** The value was “induced depression prior to the expected time of onset of the effects of haloperidol”.

**Q.** And the “onset of action (depression)” value ([2]; monkey, in vivo, ip)?
**A.** The value was 5 to 10 min.

**Q.** And the “prevention of dystonia (conclusion)” value ([2]; sensitized Cebus monkeys, adenosine administered prior to haloperidol)?
**A.** Its value is “prevented the dystonia normally produced by haloperidol”.

**Q.** What about the “effect on haloperidol induced inhibition of rat locomotor activity (conclusion)” value (Sprague-Dawley male rats; combination with haloperidol) of the same molecule?
**A.** The value was “enhanced haloperidol induced inhibition of rat locomotor activity; also recorded: additive effect in combination with haloperidol”.

**Q.** What about the “Locomotor Activity, % Of Control ± SEM” value (Sprague-Dawley male rats; oral, adenosine 1 mg/kg + HPD 0.1 mg/kg, n=9) of the same molecule?
**A.** The value was 92.0 ± 2.8 % Of Control.

**Q.** What about the “Locomotor Activity, % Of Control ± SEM” value (Sprague-Dawley male rats; oral, adenosine 1 mg/kg + HPD 0.3 mg/kg, n=9) of the same molecule?
**A.** Its value is 40.7 ± 4.9 % Of Control.

**Q.** What about the “Locomotor Activity, % Of Control ± SEM” value (Sprague-Dawley male rats; oral, adenosine 1 mg/kg + HPD 1.0 mg/kg, n=9) of the same molecule?
**A.** The value was 10.8 ± 2.6 % Of Control.

**Q.** And the “Locomotor Activity, % Of Control ± SEM” value (Sprague-Dawley male rats; oral, adenosine 1 mg/kg + Vehicle 5 ml/kg, n=9)?
**A.** The value was 93.8 ± 8.9 % Of Control.

**Q.** What about the “Locomotor Activity, % Of Control ± SEM” value (Sprague-Dawley male rats; oral, adenosine 3 mg/kg + HPD 0.1 mg/kg, n=8) of the same molecule?
**A.** The value was 49.1 ± 10.0 % Of Control.

**Q.** What about the “Locomotor Activity, % Of Control ± SEM” value (Sprague-Dawley male rats; oral, adenosine 3 mg/kg + HPD 0.3 mg/kg, n=17) of the same molecule?
**A.** The value was 21.6 ± 5.0 % Of Control.

**Q.** What about the “Locomotor Activity, % Of Control ± SEM” value (Sprague-Dawley male rats; oral, adenosine 3 mg/kg + HPD 1.0 mg/kg, n=17) of the same molecule?
**A.** The value was 9.8 ± 2.1 % Of Control.

**Q.** What about the “Locomotor Activity, % Of Control ± SEM” value (Sprague-Dawley male rats; oral, adenosine 3 mg/kg + HPD 3.0 mg/kg, n=9) of the same molecule?
**A.** The value was 4.3 ± 1.3 % Of Control.

**Q.** What about the “Locomotor Activity, % Of Control ± SEM” value (Sprague-Dawley male rats; oral, adenosine 3 mg/kg + Vehicle 5 ml/kg, n=17) of the same molecule?
**A.** The value was 58.7 ± 5.2 % Of Control.

**Q.** And the “alteration of haloperidol-induced inhibition of spontaneous locomotion” value (Sprague-Dawley male rats; oral, adenosine 1.0 mg/kg + haloperidol)?
**A.** Its value is “did not significantly alter the dose-related inhibition of spontaneous locomotion caused by haloperidol”.

**Q.** What about the “enhancement of haloperidol locomotor inhibition” value (Sprague-Dawley male rats; oral, adenosine 3.0 mg/kg + haloperidol 0.1 and 0.3 mg/kg) of the same molecule?
**A.** Its value is “enhanced the locomotor inhibition”.

**Q.** What about the alteration of locomotion (Sprague-Dawley male rats; oral, adenosine alone 1.0 mg/kg) of the same molecule?
**A.** Its alteration of locomotion is “did not significantly alter locomotion”.

**Q.** And the reduction of locomotion (Sprague-Dawley male rats; oral, adenosine alone 3.0 mg/kg)?
**A.** Its reduction of locomotion is 50%.
